From patent US20150344540A1, “NOVEL GLP-1 RECEPTOR AGONISTS WITH CHOLESTEROL EFFLUX ACTIVITY” (NOVO NORDISK A/S, priority 2012, published 2015)
Like-named read-outs stand apart in the source and are kept apart here. Where a SMILES comes first, the peptide text is derived from it. [ ]: non-standard residue; d: D form. Aib = CC(C)(N)C(=O)O

Assays:
[1] = tested on: Mouse monocyte/macrophage cell line, RAW 264.7; experiment: Cholesterol efflux assay (3H-cholesterol, macrophage cell line); type: cell-based; conditions: RAW 264.7, 4 hrs incubation, 0.1% human serum albumin; for 4 h Cholesterol Efflux Emax: ABCA1-mediated efflux
human GLP-1 receptor = human GLP-1 receptor (Homo sapiens, UniProt P43220); experiment: Functional GLP-1 receptor assay, in vitro potency (CRE luciferase; whole cells); type: cell-based
[2] = GLP1R CRE luc 1% HSA EC50 Mean Value, BHK cells expressing human GLP-1 receptor, 1% HSA

Chain of human GLP-1 receptor (P43220 24-463): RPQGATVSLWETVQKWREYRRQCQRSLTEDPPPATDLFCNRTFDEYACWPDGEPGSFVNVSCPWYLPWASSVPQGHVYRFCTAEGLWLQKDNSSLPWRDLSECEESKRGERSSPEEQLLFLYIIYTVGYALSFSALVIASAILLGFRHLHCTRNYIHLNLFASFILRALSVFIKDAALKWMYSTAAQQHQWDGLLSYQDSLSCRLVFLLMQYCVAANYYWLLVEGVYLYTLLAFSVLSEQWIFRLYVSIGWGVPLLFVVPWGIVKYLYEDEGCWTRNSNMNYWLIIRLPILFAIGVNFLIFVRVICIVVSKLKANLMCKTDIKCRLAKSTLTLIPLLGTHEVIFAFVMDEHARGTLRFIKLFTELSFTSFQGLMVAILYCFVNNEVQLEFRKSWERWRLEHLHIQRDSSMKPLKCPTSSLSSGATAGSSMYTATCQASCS

| SMILES | 4 h Cholesterol Efflux Emax [1] | EC50 ([1]; read-out: 4 h Cholesterol Efflux EC50, ABCA1-mediated efflux (CPT-cAMP induced minus non-induced)) | EC50 (human GLP-1 receptor; GLP1R CRE luc 0% HSA EC50 Mean Value) | EC50 (human GLP-1 receptor; GLP1R CRE luc 1% HSA EC50 Mean Value) | EC50 (human GLP-1 receptor; [2]) | EC50 (human GLP-1 receptor; BHK cells expressing human GLP-1 receptor, 0% HSA, read-out: GLP1R CRE luc 0% HSA EC50 Mean Value) |
| --- | --- | --- | --- | --- | --- | --- |
| CC(C)C[C@H](NC(=O)[C@H](Cc1ccccc1)NC(=O)[C@H](CCC(=O)O)NC(=O)[C@H](CCCCN)NC(=O)C(C)(C)NC(=O)[C@H](CCCCN)NC(=O)[C@H](CCC(=O)O)NC(=O)[C@@H](NC(=O)[C@H](CC(C)C)NC(=O)[C@H](Cc1c[nH]c2ccccc12)NC(=O)[C@H](C)NC(=O)[C@@H](NC(=O)[C@H](Cc1ccccc1)NC(=O)[C@H](CCC(=O)O)NC(=O)[C@H](CCCCN)NC(=O)[C@@H](NC(=O)[C@H](C)NC(=O)[C@H](CCC(=O)O)NC(=O)CNC(=O)[C@H](CCC(=O)O)NC(=O)[C@H](CC(C)C)NC(=O)[C@H](Cc1ccc(O)cc1)NC(=O)[C@H](CO)NC(=O)[C@H](CO)NC(=O)[C@@H](NC(=O)[C@H](CC(=O)O)NC(=O)[C@H](CO)NC(=O)[C@@H](NC(=O)[C@H](Cc1ccccc1)NC(=O)[C@@H](NC(=O)CNC(=O)[C@H](CCC(=O)O)NC(=O)C(C)(C)NC(=O)[C@@H](N)Cc1c[nH]cn1)[C@@H](C)O)[C@@H](C)O)C(C)C)C(C)C)C(C)C)C(C)C)C(N)=O [Compound 82, [Aib8,Glu23,Val25,Val29,Glu34,Lys35,Aib36,Lys37]-GLP-1-(7-37)-peptidyl-Glu-Phe-Leu amide] (H-H[Aib]EGTFTSDVSSYLEGEAVKEFVAWLVEK[Aib]KEFL-NH2; N-terminus assumed) | 120% | 690 nM | 0.111 nM | 0.036 nM | – | – |
| CC[C@H](C)[C@H](NC(=O)[C@H](Cc1ccccc1)NC(=O)[C@H](CCC(=O)O)NC(=O)[C@H](CCCCN)NC(=O)[C@@H](NC(=O)[C@H](C)NC(=O)[C@H](CCC(=O)O)NC(=O)CNC(=O)[C@H](CCC(=O)O)NC(=O)[C@H](CC(C)C)NC(=O)[C@H](Cc1ccc(O)cc1)NC(=O)[C@H](CO)NC(=O)[C@H](CO)NC(=O)[C@@H](NC(=O)[C@H](CC(=O)O)NC(=O)[C@H](CO)NC(=O)[C@@H](NC(=O)[C@H](Cc1ccccc1)NC(=O)[C@@H](NC(=O)CNC(=O)[C@H](CCC(=O)O)NC(=O)C(C)(C)NC(=O)[C@@H](N)Cc1c[nH]cn1)[C@@H](C)O)[C@@H](C)O)C(C)C)C(C)C)C(=O)N[C@@H](CCC(N)=O)C(=O)N[C@@H](Cc1c[nH]c2ccccc12)C(=O)N[C@@H](CC(C)C)C(=O)N[C@H](C(=O)N[C@@H](CCC(=O)O)C(=O)N[C@@H](CCCCN)C(=O)NC(C)(C)C(=O)N[C@@H](CCCCN)C(=O)N[C@@H](CCC(=O)O)C(=O)N[C@@H](Cc1ccccc1)C(=O)N[C@@H](CC(C)C)C(N)=O)C(C)C [Compound 83, [Aib8,Glu23,Val25,Gln30,Glu34,Lys35,Aib36,Lys37]-GLP-1-(7-37)-peptidyl-Glu-Phe-Leu amide] (H-H[Aib]EGTFTSDVSSYLEGEAVKEFIQWLVEK[Aib]KEFL-NH2) | 97% | – | – | – | 0.042 nM | – |
| CC[C@H](C)[C@H](NC(=O)[C@H](Cc1ccccc1)NC(=O)[C@H](CCC(=O)O)NC(=O)[C@H](CCCCN)NC(=O)[C@@H](NC(=O)[C@H](C)NC(=O)[C@H](CCC(=O)O)NC(=O)CNC(=O)[C@H](CCC(=O)O)NC(=O)[C@H](CC(C)C)NC(=O)[C@H](Cc1ccc(O)cc1)NC(=O)[C@H](CO)NC(=O)[C@H](CO)NC(=O)[C@@H](NC(=O)[C@H](CC(=O)O)NC(=O)[C@H](CO)NC(=O)[C@@H](NC(=O)[C@H](Cc1ccccc1)NC(=O)[C@@H](NC(=O)CNC(=O)[C@H](CCC(=O)O)NC(=O)C(C)(C)NC(=O)[C@@H](N)Cc1c[nH]cn1)[C@@H](C)O)[C@@H](C)O)C(C)C)C(C)C)C(=O)N[C@@H](C)C(=O)N[C@@H](Cc1c[nH]c2ccccc12)C(=O)N[C@@H](CC(C)C)C(=O)N[C@@H](CC(C)C)C(=O)N[C@@H](CCC(=O)O)C(=O)N[C@@H](CCCCN)C(=O)NC(C)(C)C(=O)N[C@@H](CCCCN)C(=O)N[C@@H](CCC(=O)O)C(=O)N[C@@H](Cc1ccccc1)C(=O)N[C@@H](CC(C)C)C(N)=O [Compound 84, [Aib8,Glu23,Val25,Leu33,Glu34,Lys35,Aib36,Lys37]-GLP-1-(7-37)-peptidyl-Glu-Phe-Leu amide] (H-H[Aib]EGTFTSDVSSYLEGEAVKEFIAWLLEK[Aib]KEFL-NH2) | 94% | – | – | – | 0.076 nM | – |
| CC[C@H](C)[C@H](NC(=O)[C@H](Cc1ccccc1)NC(=O)[C@H](CCC(=O)O)NC(=O)[C@H](CCCCN)NC(=O)[C@@H](NC(=O)[C@H](C)NC(=O)[C@H](CCC(=O)O)NC(=O)CNC(=O)[C@H](CCC(=O)O)NC(=O)[C@H](CC(C)C)NC(=O)[C@H](Cc1ccc(O)cc1)NC(=O)[C@H](CO)NC(=O)[C@H](CO)NC(=O)[C@@H](NC(=O)[C@H](CC(=O)O)NC(=O)[C@H](CO)NC(=O)[C@@H](NC(=O)[C@H](Cc1ccccc1)NC(=O)[C@@H](NC(=O)CNC(=O)[C@H](CCC(=O)O)NC(=O)C(C)(C)NC(=O)[C@@H](N)Cc1c[nH]cn1)[C@@H](C)O)[C@@H](C)O)C(C)C)C(C)C)C(=O)N[C@@H](CCCCN)C(=O)N[C@@H](Cc1c[nH]c2ccccc12)C(=O)N[C@@H](CC(C)C)C(=O)N[C@H](C(=O)N[C@@H](CCC(=O)O)C(=O)N[C@@H](CCCCN)C(=O)NC(C)(C)C(=O)N[C@@H](CCCCN)C(=O)N[C@@H](CCC(=O)O)C(=O)N[C@@H](Cc1ccccc1)C(=O)N[C@@H](CC(C)C)C(N)=O)C(C)C [Compound 86, [Aib8,Glu23,Val25,Lys30,Glu34,Lys35,Aib36,Lys37]-GLP-1-(7-37)-peptidyl-Glu-Phe-Leu amide] (H-H[Aib]EGTFTSDVSSYLEGEAVKEFIKWLVEK[Aib]KEFL-NH2) | 102% | – | – | – | 0.043 nM | 0.103 nM |
| CC[C@H](C)[C@H](NC(=O)[C@H](Cc1ccccc1)NC(=O)[C@H](CCC(=O)O)NC(=O)[C@H](CCCNC(=N)N)NC(=O)[C@@H](NC(=O)[C@H](C)NC(=O)[C@H](CCC(=O)O)NC(=O)CNC(=O)[C@H](CCC(=O)O)NC(=O)[C@H](CC(C)C)NC(=O)[C@H](Cc1ccc(O)cc1)NC(=O)[C@H](CO)NC(=O)[C@H](CO)NC(=O)[C@@H](NC(=O)[C@H](CC(=O)O)NC(=O)[C@H](CO)NC(=O)[C@@H](NC(=O)[C@H](Cc1ccccc1)NC(=O)[C@@H](NC(=O)CNC(=O)[C@H](CCC(=O)O)NC(=O)C(C)(C)NC(=O)[C@@H](N)Cc1c[nH]cn1)[C@@H](C)O)[C@@H](C)O)C(C)C)C(C)C)C(=O)N[C@@H](C)C(=O)N[C@@H](Cc1c[nH]c2ccccc12)C(=O)N[C@@H](CC(C)C)C(=O)N[C@H](C(=O)N[C@@H](CCC(=O)O)C(=O)N[C@@H](CCCNC(=N)N)C(=O)N[C@H](C(=O)N[C@@H](CCCNC(=N)N)C(=O)N[C@@H](CCC(=O)O)C(=O)N[C@@H](Cc1ccccc1)C(=O)N[C@@H](CC(C)C)C(=O)N[C@@H](CCCCN)C(N)=O)C(C)C)C(C)C [Compound 91] (H-H[Aib]EGTFTSDVSSYLEGEAVREFIAWLVERVREFLK-NH2) | 103% | – | – | – | 0.118 nM | – |
